From paper PMC9230136 (Pharmaceutics, 2022)
Like-named read-outs stand apart in the source and are kept apart here.

Assays:
[1] = test system: A549, MDA-MB-231, HeLa, HT-29 and Jurkat cancer cell lines; test: Antiproliferative activity over the panel of cancer cell lines; type: cell-based, human; conditions: Homo sapiens
Procedure: (§1) Colon adenocarcinoma (HT-29) and T-cell leukemia (Jurkat) cells were grown in RPMI-1640 medium (Gibco, Milano, Italy). Promyelocytic leukemia cells (HL-60), non-small cell lung carcinoma (A549), cervix carcinoma (HeLa) and breast adenocarcinoma (MDA-MB-231) cells were grown in DMEM medium (Gibco, Milano, Italy). Both media were supplemented with 115 units/mL of penicillin G (Gibco, Milano, Italy), 115 μg/mL of streptomycin (Invitrogen, Milano, Italy) and 10% fetal bovine serum (Invitrogen, Milano, Italy). All the cell lines used were purchased from the American Type Culture Collection (ATCC, Manassas, VA, USA). Stock solutions (10 mM) of the compounds were obtained by dissolving them in DMSO.
(§2) The cells were seeded in 96-well plates at the appropriate density for each cell line. After 24 h, the cells were treated by performing serial 5-fold dilutions of the tested compounds starting from a concentration of 10 μM. All experimental conditions were tested in triplicate for statistical analysis. The plates were incubated for 72 h at 37 °C in a humidified 5% CO2 atmosphere. At the end of the incubation period, 10 μL of 100 μg/mL resazurin solution was added to each well; then, the plate was re-incubated for 3–4 h. The fluorescence of the wells in each plate was monitored using a Spark 10 M spectrophotometer (Tecan Group Ltd., Mannedorf, Switzerland) with a 535 nm excitation wavelength and a 600 nm emission wavelength.

MDA-MB-231 = test: Antiproliferative assay (resazurin, 72 h); type: cell-based, human; conditions: Homo sapiens, MDA-MB-231, mean ± SE, 72 h
Procedure: as §1, §2

Jurkat = test: Antiproliferative assay (resazurin, 72 h); type: cell-based, human; conditions: Homo sapiens, Jurkat, mean ± SE, 72 h
Procedure: as §1, §2

HT-29 = test: Antiproliferative assay (resazurin, 72 h); type: cell-based, human; conditions: Homo sapiens, HT-29, mean ± SE, 72 h
Procedure: as §1, §2

A549 = test: Antiproliferative assay (resazurin, 72 h); type: cell-based, human; conditions: Homo sapiens
Procedure: as §1, §2

HeLa = test: Antiproliferative assay (resazurin, 72 h); type: cell-based, human; conditions: Homo sapiens, HeLa
Procedure: as §1, §2

[2] = read-out: IC50 values (2-para-substituted phenyl derivatives)

Row | SMILES | IC50 [1, 2] [nM] | IC50 (MDA-MB-231; Table 1) [nM] | IC50 (Jurkat; Table 1) [nM] | IC50 (HT-29; Table 1) [nM] | IC50 (A549; A549, Table 1, mean ± SE) [nM] | IC50 (HeLa; Table 1, mean ± SE) [nM] | melting point [°C] | IC50 ([1]; four of the five cell lines, read-out: IC50 values against four of the five cell lines) [nM] | IC50 (MDA-MB-231; Table 2) [nM] | IC50 (Jurkat; Table 2) [nM] | IC50 (HT-29; Table 2) [nM] | IC50 (A549; A549, Table 2, mean ± SE) [nM] | IC50 (HeLa; Table 2, mean ± SE) [nM]
1 | COc1cc(Nc2cc(C)nc3nc(-c4ccc(F)cc4)nn23)cc(OC)c1OC [Compound 7a, 2-(4-Fluorophenyl)-5-methyl-N-(3,4,5-trimethoxyphenyl)-[1,2,4]triazolo [1,5-a]pyrimidin-7-amine] | < 2000 | 2250 ± 190 | 3570 ± 450 | > 10000 | 2710 ± 250 | 3760 ± 190 | 253 | – | – | – | – | – | –
2 | COc1cc(Nc2cc(C)nc3nc(-c4ccc(Cl)cc4)nn23)cc(OC)c1OC [Compound 7b, 2-(4-Chlorophenyl)-5-methyl-N-(3,4,5-trimethoxyphenyl)-[1,2,4]triazolo [1,5-a]pyrimidin-7-amine] | < 2000 | > 10000 | > 10000 | > 10000 | > 10000 | 5790 ± 420 | 260 | – | – | – | – | – | –
3 | COc1cc(Nc2cc(C)nc3nc(-c4ccc(C)cc4)nn23)cc(OC)c1OC [Compound 7c, 5-Methyl-2-(p-tolyl)-N-(3,4,5-trimethoxyphenyl)-[1,2,4]triazolo [1,5-a]pyrimidin-7-amine] | < 2000 | 2600 ± 270 | 4230 ± 1150 | > 10000 | > 10000 | 2080 ± 190 | 248 | – | – | – | – | – | –
4 | COc1cc(Nc2cc(C)nc3nc(Nc4ccc(Cl)cc4)nn23)cc(OC)c1OC [Compound 7f, N2-(4-Chlorophenyl)-5-methyl-N7-(3,4,5-trimethoxyphenyl)-[1,2,4]triazolo [1,5-a]pyrimidine-2,7-diamine] | – | 470 ± 45 | > 10000 | 320 ± 40 | 290 ± 30 | 92 ± 10 | 251 | < 1000 | – | – | – | – | –
5 | COc1cc(Nc2cc(C)nc3nc(NCCc4ccccc4)nn23)cc(OC)c1OC [Compound 7z, 5-Methyl-N^2-phenethyl-N^7-(3,4,5-trimethoxyphenyl)-[1,2,4]triazolo [1,5-a]pyrimidine-2,7-diamine] | – | 940 ± 90 | 1990 ± 240 | 1890 ± 160 | 2010 ± 160 | 860 ± 100 | 201 to 203 | – | – | – | – | – | –
6 | Cc1cc(Nc2ccc(F)c(Cl)c2)n2nc(NCc3ccc(Cl)cc3)nc2n1 [Compound 8a, N^7-(3-Chloro-4-fluorophenyl)-N^2-(4-chlorobenzyl)-5-methyl-[1,2,4]triazolo [1,5-a]pyrimidine-2,7-diamine] | – | – | – | – | – | – | 186 to 188 | – | 390 ± 40 | 500 ± 310 | 340 ± 20 | 320 ± 60 | 190 ± 50
7 | Cc1cc(Nc2cccc(Cl)c2)n2nc(NCc3ccc(Cl)cc3)nc2n1 [Compound 8b, N^7-(3-Chlorophenyl)-N^2-(4-chlorobenzyl)-5-methyl-[1,2,4]triazolo [1,5-a]pyrimidine-2,7-diamine] | – | – | – | – | – | – | 158 to 160 | – | 1880 ± 80 | 880 ± 500 | 1640 ± 220 | 1740 ± 130 | 810 ± 150
8 | C#Cc1cccc(Nc2cc(C)nc3nc(NCc4ccc(Cl)cc4)nn23)c1 [Compound 8c, N^7-(3-Ethynylphenyl)-N^2-(4-chlorobenzyl)-5-methyl-[1,2,4]triazolo [1,5-a]pyrimidine-2,7-diamine] | – | – | – | – | – | – | 190 to 192 | – | 1710 ± 60 | 500 ± 60 | 490 ± 60 | 610 ± 200 | 420 ± 50
9 | Cc1ccc(CNc2nc3nc(C)cc(Nc4cccc(Cl)c4)n3n2)cc1 [Compound 8e, N^7-(3-Chlorophenyl)-N^2-(4-methylbenzyl)-5-methyl-[1,2,4]triazolo [1,5-a]pyrimidine-2,7-diamine] | – | – | – | – | – | – | 166 to 168 | – | 2760 ± 550 | 630 ± 140 | 830 ± 3 | 1640 ± 370 | 680 ± 260
10 | Cc1cc(Nc2cccc(F)c2)n2nc(NCc3ccc4c(c3)OCO4)nc2n1 [Compound 8h, N^2-(Benzo[d][1,3]dioxol-5-ylmethyl)-N^7-(3-fluorophenyl)-5-methyl-[1,2,4]triazolo [1,5-a]pyrimidine-2,7-diamine] | – | – | – | – | – | – | 174 to 176 | – | 9250 ± 120 | 5980 ± 1580 | 9110 ± 930 | 2440 ± 130 | 5880 ± 2960
11 | Cc1cc(Nc2cccc(Cl)c2)n2nc(NCc3ccc4c(c3)OCO4)nc2n1 [Compound 8j, N^2-(Benzo[d][1,3]dioxol-5-ylmethyl)-N^7-(3-chlorophenyl)-5-methyl-[1,2,4]triazolo [1,5-a]pyrimidine-2,7-diamine] | – | – | – | – | – | – | 164 to 166 | – | 4820 ± 1910 | 1660 ± 480 | 2660 ± 660 | 2170 ± 10 | 960 ± 460
12 | Cc1cc(Nc2ccc(Cl)c(Cl)c2)n2nc(NCc3ccc4c(c3)OCO4)nc2n1 [Compound 8k, N^2-(Benzo[d][1,3]dioxol-5-ylmethyl)-N^7-(3,4-dichlorophenyl)-5-methyl-[1,2,4]triazolo [1,5-a]pyrimidine-2,7-diamine] | – | – | – | – | – | – | 166 to 168 | – | 2040 ± 1030 | 950 ± 120 | 1380 ± 60 | 2360 ± 340 | 720 ± 340
13 | Cc1cc(Nc2cccc(Br)c2)n2nc(NCc3ccc4c(c3)OCO4)nc2n1 [Compound 8m, N^2-(Benzo[d][1,3]dioxol-5-ylmethyl)-N^7-(3-bromophenyl)-5-methyl-[1,2,4]triazolo [1,5-a]pyrimidine-2,7-diamine] | – | – | – | – | – | – | 150 to 152 | – | 3990 ± 60 | 1180 ± 110 | 2240 ± 120 | 2320 ± 230 | 1280 ± 300
14 | Cc1cc(Nc2ccc(C(F)(F)F)cc2)n2nc(NCc3ccc4c(c3)OCO4)nc2n1 [Compound 8n, N^2-(Benzo[d][1,3]dioxol-5-ylmethyl)-N^7-(4-trifluoromethylphenyl)-5-methyl-[1,2,4]triazolo [1,5-a]pyrimidine-2,7-diamine] | – | – | – | – | – | – | 158 to 160 | – | 6130 ± 1460 | 1600 ± 290 | 5180 ± 270 | 3270 ± 570 | 3640 ± 1010
15 | Cc1cc(Nc2cccc(C(F)(F)F)c2)n2nc(NCc3ccc4c(c3)OCO4)nc2n1 [Compound 8o, N^2-(Benzo[d][1,3]dioxol-5-ylmethyl)-N^7-(3-trifluoromethylphenyl)-5-methyl-[1,2,4]triazolo [1,5-a]pyrimidine-2,7-diamine] | – | – | – | – | – | – | 180 to 182 | – | 9820 ± 860 | 7600 ± 60 | 7130 ± 870 | 6260 ± 2020 | 7150 ± 600
16 | C#Cc1cccc(Nc2cc(C)nc3nc(NCc4ccc5c(c4)OCO5)nn23)c1 [Compound 8p, N^2-(Benzo[d][1,3]dioxol-5-ylmethyl)-N^7-(3-ethynylphenyl)-5-methyl-[1,2,4]triazolo [1,5-a]pyrimidine-2,7-diamine] | – | – | – | – | – | – | 165 to 168 | – | 3090 ± 570 | 2380 ± 180 | 2080 ± 140 | 1780 ± 510 | 1600 ± 70
